Measurements as given in patent US6656936B1, “Carnitine analogues as topical, microbicidal spermicides” (Virginia Tech Intellectual Properties, Inc., priority 1999, dated 2003).
Converted amounts (≈) assume the structure as drawn. Marks after values point to notes of the source that are not given here.

Tested on: spermatozoa
Experiment: Sperm motility inhibition dose-response
Assay type: cell-based
Conditions: FIG. 2
Method: The ability of Z-15-mucic acid blends [(R)-Z-15-MA and rac-Z-15-MA] to inhibit sperm motility was tested in comparison to (R)-Z-15 alone or N-9. The results are depicted in FIG. 2.

| Structure (SMILES) | inhibition of sperm motility at concentrations below the MEC, in words |
| --- | --- |
| CCCCCCCCCCCCCCC[C@@]1(O)C[N+](C)(C)C[C@@H](CC(=O)[O-])O1 [Compound Z-15] | superior ability of Z-15 over N-9 |

Tested on: not listed separately
Experiment: pH of sample
Assay type: physicochemical
Conditions: not given
Description: The recent disclosure (Fassi, U.S. Pat. No. 5,952.379) of stable, non-hygroscopic salts of L-(-)[(R)-]acylcamitine and alkanoyl L-(-)-[(R)-]acylcarnitines with mucic acid (MA) (2:1) prompted the exploration of the effects of blending MA with Z-15. Blending reduced the pH of a sample of Z-15 from about 9-10 to about 3.5-3.8. The blends contained only 67% Z-15 as an active ingredient compared to pure Z-15 (100%).

| Structure (SMILES) | pH of a sample |
| --- | --- |
| CCCCCCCCCCCCCCC[C@@]1(O)C[N+](C)(C)C[C@@H](CC(=O)[O-])O1 [Compound Z-15] | 9-10 |

Tested on: human sperm (semen samples)
Experiment: Spermicidal activity in the Sander-Cramer test
Assay type: cell-based
Conditions: Table 1
Method: Semen samples were collected from healthy human volunteers: only specimens with >60×10^6 motile sperm/mL and >50% motility were used. Two-fold serial dilutions of the compounds were prepared in 0.9% saline and incubated with semen samples for 20 seconds. Sperm were assessed under the microscope and positive dilutions (i.e. all observed sperm were immotile) were further incubated at 37° C. for 1 hour with 2 vol. of buffer, and re-examined for sperm motility. If no motile sperm were seen, the positive score was maintained. The Minimum Effective Concentration (MEC) for the compound was calculated using the highest sperm immobilizing dilution and its initial concentration.

| Structure (SMILES) | spermicidal activity (MEC), in words |
| --- | --- |
| CCCCCCCCCCCCCC[C@@]1(O)C[N+](C)(C)C[C@@H](CC(=O)[O-])O1 [Compound Z-14] | slightly lower than that of N-9 |
| CCCCCCCCCCCCCCC[C@@]1(O)C[N+](C)(C)C[C@@H](CC(=O)[O-])O1 [Compound Z-15] | slightly lower than that of N-9 |

Same assay, conditions: Table 1; initial conc. 10 mg/ml in dH2O; n=10

| Structure (SMILES) | Highest Spermicidal Dilution (1/X) | MEC (Minimum Effective Concentration) [mg/mL] |
| --- | --- | --- |
| CCCCCCCCCC[C@@]1(O)C[N+](C)(C)C[C@@H](CC(=O)[O-])O1 [Compound Z-10] | 4.8 ± 0.5 1/X | 2.3 ± 0.2 |
| CCCCCCCCCCC[C@@]1(O)C[N+](C)(C)C[C@@H](CC(=O)[O-])O1 [Compound Z-11] | 7.6 ± 0.0 1/X | 1.4 ± 0.1 |
| CCCCCCCCCCCCCC[C@@]1(O)C[N+](C)(C)C[C@@H](CC(=O)[O-])O1 [Compound Z-14] | 102.4 ± 18.5 1/X | 0.121 ± 0.014 |
| CCCCCCCCCCCCCCC[C@@]1(O)C[N+](C)(C)C[C@@H](CC(=O)[O-])O1 [Compound Z-15] | 102.4 ± 9.9 1/X | 0.109 ± 0.012 |

Same assay, conditions: Table 4; dH2O

| Structure (SMILES) | MEC (Minimum Effective Concentration per Sander-Cramer assay) [mg/mL] |
| --- | --- |
| CCCCCCCCCCCCCC[C@@]1(O)C[N+](C)(C)C[C@@H](CC(=O)[O-])O1 [Compound Z-14] | 0.091 ± 0.008 |
| CCCCCCCCCCCCCCC[C@@]1(O)C[N+](C)(C)C[C@@H](CC(=O)[O-])O1 [Compound Z-15] | 0.104 ± 0.011 |

Same assay, conditions: Table 5; initial conc. 10 mg/ml in dH2O; n=10

| Structure (SMILES) | Highest Spermicidal Dilution (1/X) | MEC [mg/mL] |
| --- | --- | --- |
| CCCCCCCCCCCCCCC[C@@]1(O)C[N+](C)(C)C[C@@H](CC(=O)[O-])O1 [Compound Z-15] | 73.6 ± 9.1 1/X | 0.156 ± 0.019 |

Tested on: sperm penetration in bovine cervical mucus
Experiment: Cervical mucus biodiffusion, Double-End test
Conditions: testing concentration ten fold MEC; 60 minutes incubation; n=12
Method: The cervical mucus Biodiffusion properties of (R)Z-14 and (R)-Z-15 analogues were tested in comparison to that of N-9 using the Double-End test (Doncel. 1994). In this test, compound solutions (in 0.9% saline) were incubated for 60 minutes with a 7 cm capillary tube containing bovine cervical mucus (Penetrak®, Biochem Immuno System, Norwell, Mass.) opened at one end. After such incubation, the tubes' open end, which had been in contact with the compound, was sealed. Subsequently, the tubes were cut open at 20 mm from the initial opening, inverted, and immersed in semen so as to allow sperm penetration in an opposite direction to that of the compound diffusion. Sperm cease penetration when they encounter a bioactive concentration of the test compound. Thus, the lower the sperm penetration, the greater the compound's biodiffusion. In addition, the spermicidal activity of the analogues was tested again.

| Structure (SMILES) | DET % control (test sperm penetration compared to control) [% control] |
| --- | --- |
| CCCCCCCCCCCCCC[C@@]1(O)C[N+](C)(C)C[C@@H](CC(=O)[O-])O1 [Compound Z-14] | 18.0 ± 1.2 |
| CCCCCCCCCCCCCCC[C@@]1(O)C[N+](C)(C)C[C@@H](CC(=O)[O-])O1 [Compound Z-15] | 16.0 ± 0.0 |

Tested on: HIV-1 (RF strain)
Experiment: In vitro anti-HIV cell-free inactivation assay
Assay type: cell-based
Conditions: 0.032 mg/mL, 2 minutes exposure
Method: The assay for in vitro anti-HIV activity followed the previously described procedure (Resnick et al., 1990). An infectious suspension of HIV-1 (RF strain, NIH 1983) was exposed to the compounds for 2 minutes. Immediately after, the mixture was 10-fold serially diluted with medium to terminate compound effect, and the dilutions were incubated with MT-2 target cells at 37° C. The cells were maintained in growth medium at 37° C. for 6 days. HIV-induced cytopathology (syncytium formation) was assessed on day 6 after infection, as was cell viability.

| Structure (SMILES) | reduction of infective viral titer [log units] |
| --- | --- |
| CCCCCCCCCCCCCC[C@@]1(O)C[N+](C)(C)C[C@@H](CC(=O)[O-])O1 [Compound Z-14] | 0.5 |
| CCCCCCCCCCCCCCC[C@@]1(O)C[N+](C)(C)C[C@@H](CC(=O)[O-])O1 [Compound Z-15] | 0.3 |

Same assay, conditions: 0.1 mg/mL, 2 minutes exposure

| Structure (SMILES) | reduction of infective viral titer [log units] |
| --- | --- |
| CCCCCCCCCCCCCC[C@@]1(O)C[N+](C)(C)C[C@@H](CC(=O)[O-])O1 [Compound Z-14] | 1.5 |
| CCCCCCCCCCCCCCC[C@@]1(O)C[N+](C)(C)C[C@@H](CC(=O)[O-])O1 [Compound Z-15] | 1.5 |

Same assay, conditions: 0.32 mg/mL, 2 minutes exposure

| Structure (SMILES) | reduction of infective viral titer [log units] |
| --- | --- |
| CCCCCCCCCC[C@@]1(O)C[N+](C)(C)C[C@@H](CC(=O)[O-])O1 [Compound Z-10] | 0.8 |
| CCCCCCCCCCC[C@@]1(O)C[N+](C)(C)C[C@@H](CC(=O)[O-])O1 [Compound Z-11] | 0.8 |
| CCCCCCCCCCCCCC[C@@]1(O)C[N+](C)(C)C[C@@H](CC(=O)[O-])O1 [Compound Z-14] | 2.8 |
| CCCCCCCCCCCCCCC[C@@]1(O)C[N+](C)(C)C[C@@H](CC(=O)[O-])O1 [Compound Z-15] | 2.7 |

Same assay, conditions: 1 mg/mL, 2 minutes exposure

| Structure (SMILES) | reduction of infective viral titer [log units] |
| --- | --- |
| CCCCCCCCCC[C@@]1(O)C[N+](C)(C)C[C@@H](CC(=O)[O-])O1 [Compound Z-10] | 1.0 |
| CCCCCCCCCCC[C@@]1(O)C[N+](C)(C)C[C@@H](CC(=O)[O-])O1 [Compound Z-11] | 2.0 |
| CCCCCCCCCCCCCC[C@@]1(O)C[N+](C)(C)C[C@@H](CC(=O)[O-])O1 [Compound Z-14] | 3.5 |
| CCCCCCCCCCCCCCC[C@@]1(O)C[N+](C)(C)C[C@@H](CC(=O)[O-])O1 [Compound Z-15] | 3.2 |

Same assay, conditions: 3.2 mg/mL, 2 minutes exposure

| Structure (SMILES) | reduction of infective viral titer |
| --- | --- |
| CCCCCCCCCC[C@@]1(O)C[N+](C)(C)C[C@@H](CC(=O)[O-])O1 [Compound Z-10] | 2.8 log units |
| CCCCCCCCCCC[C@@]1(O)C[N+](C)(C)C[C@@H](CC(=O)[O-])O1 [Compound Z-11] | 2.7 log units |
| CCCCCCCCCCCCCC[C@@]1(O)C[N+](C)(C)C[C@@H](CC(=O)[O-])O1 [Compound Z-14] | ≧4.0 log units |
| CCCCCCCCCCCCCCC[C@@]1(O)C[N+](C)(C)C[C@@H](CC(=O)[O-])O1 [Compound Z-15] | 3.8 log units |

Same assay, conditions: 10 mg/mL, 2 minutes exposure

| Structure (SMILES) | reduction of infective viral titer |
| --- | --- |
| CCCCCCCCCC[C@@]1(O)C[N+](C)(C)C[C@@H](CC(=O)[O-])O1 [Compound Z-10] | ≧4.0^a log units |
| CCCCCCCCCCC[C@@]1(O)C[N+](C)(C)C[C@@H](CC(=O)[O-])O1 [Compound Z-11] | 4.7 log units |
| CCCCCCCCCCCCCC[C@@]1(O)C[N+](C)(C)C[C@@H](CC(=O)[O-])O1 [Compound Z-14] | ≧4.0^ log units |
| CCCCCCCCCCCCCCC[C@@]1(O)C[N+](C)(C)C[C@@H](CC(=O)[O-])O1 [Compound Z-15] | ≧4.0^ log units |

Tested on: Candida albicans
Experiment: Inhibition of growth of Candida albicans (MIC)
Assay type: cell-based
Conditions: not given
Method: The Minimum Inhibitory Concentrations (MICs) of Z-10-Z-15 were measured by determining the inhibition of growth of C. albicans in a solution of mineral salts plus yeast extract (See Standard Practice for Determining Resistance of Synthetic Polymeric Material to Fungi. American Society for Testing and Materials (ASTM) Standards on Materials and Environmental Microbiology, 1st Ed., 1987), and amended with glucose (10 g/L) and yeast extract (1 g/L). An aliquot (250 μl) of sterile medium was dispensed into each well of a 96-well microplate. Stock solutions were prepared by dissolving test compounds in 50% (v/v) aqueous dimethylsulfoxide (DMSO). Each well (plus controls) was then inoculated with 5 μl of a suspension of C. albicans. The suspension was then adjusted to provide OD686=0.28. This density contains ca. 2.5×10^7 colony forming units (CFU)^2/mL. The microplates were incubated in the dark for 4 days at 28° C.

| Structure (SMILES) | C. albicans growth inhibition, in words |
| --- | --- |
| CCCCCCCCCCCCCC[C@@]1(O)C[N+](C)(C)C[C@@H](CC(=O)[O-])O1 [Compound Z-14] | acceptable activity |
| CCCCCCCCCCCCCCC[C@@]1(O)C[N+](C)(C)C[C@@H](CC(=O)[O-])O1 [Compound Z-15] | highest activity |

Same assay, conditions: C. albicans, 4 days at 28° C.

| Structure (SMILES) | MIC [µg/mL] |
| --- | --- |
| CCCCCCCCCC[C@@]1(O)C[N+](C)(C)C[C@@H](CC(=O)[O-])O1 [Compound Z-10] | >100 |
| CCCCCCCCCCC[C@@]1(O)C[N+](C)(C)C[C@@H](CC(=O)[O-])O1 [Compound Z-11] | >100 |
| CCCCCCCCCCCCCC[C@@]1(O)C[N+](C)(C)C[C@@H](CC(=O)[O-])O1 [Compound Z-14] | 10 (≈ 25.9 µM) |
| CCCCCCCCCCCCCCC[C@@]1(O)C[N+](C)(C)C[C@@H](CC(=O)[O-])O1 [Compound Z-15] | 2 (≈ 5 µM) |

Tested on: not listed separately
Experiment: Effect of time in CMC formulation on activity and chemical integrity
Assay type: physicochemical
Conditions: six months in the CMC formulation
Method: Residual samples of (R)-Z-15 in the CMC formulation were analyzed with ^1H nuclear magnetic resonance (NMR) and Matrix Assisted Laser Desorption Ionization Time of Flight Mass Spectroscopy (MALDI-TOF). For the NMR analyses, samples of the hydrogel were dissolved in D2O. For the MALDI-TOF analysis a sample of the hydrogel was placed in the chamber and subjected to the laser. The MALDI-TOF results are depicted in FIG. 1.

| Structure (SMILES) | chemical integrity in formulation (1H NMR, MALDI-TOF) |
| --- | --- |
| CCCCCCCCCCCCCCC[C@@]1(O)C[N+](C)(C)C[C@@H](CC(=O)[O-])O1 [Compound Z-15] | remained unchanged chemically |

Same assay, conditions: three months in the CMC formulations

| Structure (SMILES) | spermicidal activity after time in formulation |
| --- | --- |
| CCCCCCCCCCCCCCC[C@@]1(O)C[N+](C)(C)C[C@@H](CC(=O)[O-])O1 [Compound Z-15] | still active as a spermicide after three months |
